# Assay: in vitro
# Conditions: human, hela cells, % viability
row,Structure (SMILES),"viability at 28.5 h, 10 µM"
1,O=C1C2(c3ccccc3)CN3CN(C2)CC1(c1ccccc1)C3 [CBK262245],93.5%
2,CN1CCN(S(=O)(=O)c2ccc(Oc3ccc([N+](=O)[O-])cc3)cc2)CC1 [CBK262248],105%
3,COc1cc(/C=N/Nc2nnn[nH]2)cc2c1OCO2 [CBK262253],100%
4,Cn1c2ccccc2c2cc(C(O)(CC(=O)CC(O)(c3ccc4c(c3)c3ccccc3n4C)C(F)(F)F)C(F)(F)F)ccc21 (stereo not drawn) [CBK262254],88%
5,Cc1ccc(S(=O)(=O)N2CCOCC2)cc1C(=O)O [CBK262256],115%
6,CCCCn1c(=O)c(C(=O)Nc2ccccc2S(N)(=O)=O)c(O)c2ccccc21 [CBK262260],98.6%
7,COc1ccccc1CNCc1ccccn1 [CBK262261],89.4%
8,O=C(O)/C=C/c1cccc(NS(=O)(=O)c2ccc(C(=O)O)cc2)c1 [CBK262262],88%
9,C/C(=N/OCC(=O)N/N=C/c1sc2ccccc2c1O)c1ccccc1 [CBK262266],96.3%
10,Cn1c(=O)c(C(=O)Nc2ccccc2S(N)(=O)=O)c(O)c2ccccc21 [CBK262267],85.5%
11,COc1cccc(/C=N/NC(=O)C(=O)NCc2ccccn2)c1 [CBK262268],84.5%
12,Cc1cc2nc(NC(=N)N)nc(C)c2cc1C [CBK262269],83.8%
13,CCOC(=O)c1ccccc1NS(C)(=O)=O [CBK262271],101%
14,Cc1ccccc1C(=O)NC(NCC1CCCO1)C(Cl)(Cl)Cl (stereo not drawn) [CBK262273],91.9%
15,COc1ccc(C(=O)/C=C/c2ccc(N3N=C(c4ccccc4)CC3c3ccccc3)cc2)cc1 (stereo not drawn) [CBK262274],91.7%
16,O=C(Nc1nnn[nH]1)C12CC3CC(CC(C3)C1)C2 [CBK262276],82.4%
17,COc1cc(/C=N/NC(=O)c2ccncc2)ccc1OC(=O)c1cccs1 [CBK262278],103%
18,COc1ccc(C(=O)NC(NCc2ccco2)C(Cl)(Cl)Cl)cc1 (stereo not drawn) [CBK262279],119%
19,CC(C)=NNC(=O)CN(c1ccc(C)cc1)S(=O)(=O)c1ccccc1 [CBK262280],99.4%
20,O=C1CC(N2CCN(c3ccccn3)CC2)C(=O)N1CCc1ccccc1 (stereo not drawn) [CBK262282],77.9%
21,Brc1ccc(/C=N\c2ccc3c(c2)ncn3CCn2cnc3cc(/N=C/c4ccc(Br)cc4)ccc32)cc1 [CBK262285],83.9%
22,COc1ccccc1/C=N/NC(=O)C(=O)NCc1ccccn1 [CBK262286],93.7%

row,Structure (SMILES),"viability at 28.5 h, 10 µM"
1,O=C(N/N=C/c1ccc(-c2ccc([N+](=O)[O-])cc2)o1)c1cccnc1 [CBK262287],92.3%
2,CC(C)CCn1c(=O)c(C(=O)Nc2ccccc2S(N)(=O)=O)c(O)c2ccccc21 [CBK262294],104%
3,Cc1ccc(Nc2nc(N/N=C/c3ccccc3)nc(N3CCC(Cc4ccccc4)CC3)n2)cc1 [CBK262296],76.7%
4,O=C(Nc1c(Cl)cccc1Cl)c1ccc(-c2ccccc2)cc1 [CBK262300],94.5%
5,NC(=O)CCn1c(=S)n(CCC(N)=O)c2ccccc21 [CBK262301],86.2%
6,O=P(O)(CCc1ccccc1)CN1CCOCC1 [CBK262305],104%
7,Cc1ccc(-c2cc(-c3ccccc3O)nc(N/N=C/c3cccnc3)n2)cc1 [CBK262308],85.2%
8,CCOC(=O)c1c(NC(=O)Cc2ccccc2)sc2c1CCC2 [CBK262309],88.4%
9,Cc1ccccc1-n1c(Cc2ccccc2)nc2c(cnn2-c2ccccc2)c1=O [CBK262310],91.6%
10,O=C1CCCCCN1CP(=O)(O)CCc1ccccc1 [CBK262313],99.7%
11,O=C(O)Cc1nn(Cc2ccccc2)c(=O)c2ccccc12 [CBK262315],115%
12,O=P(O)(CCc1ccncc1)CN1CCOCC1 [CBK262317],89.3%
13,O=C(Nc1ccccc1)Nc1ccc2c(c1)S(=O)(=O)c1cc(NC(=O)Nc3ccccc3)ccc1-2 [CBK262320],94.6%
14,N#Cc1c(N)nc2c(c1-c1ccc(Cl)cc1)CCCCCCCCCC2 [CBK262322],90.6%
15,O=P(O)(CN1CCCCC1)C1CCCCC1O (stereo not drawn) [CBK262325],87.1%
16,O=C(CN1C(=O)CCC1=O)NCCc1ccccc1 [CBK262326],98.3%
17,O=C1c2ccccc2S(=O)(=O)N1CC(O)Cn1c2ccc(Cl)cc2c2cc(Cl)ccc21 (stereo not drawn) [CBK262327],101%
18,Cc1cccc(C)c1N(CC(=O)O)S(C)(=O)=O [CBK262329],102%
19,COc1cc(/C=N/NC(=O)CCn2c3ccccc3c3ccccc32)ccc1O [CBK262332],73%
20,Cc1ccc(C(=O)NCCCNc2ccc(Cl)cc2[N+](=O)[O-])cc1 [CBK262334],101%
21,O=[N+]([O-])c1ccccc1N/C(=N/S(=O)(=O)c1ccccc1)c1ccccc1 [CBK262336],85.8%
22,O=C(Nc1cccc(CCc2ccccn2)c1)Nc1cccc2ccccc12 [CBK262337],87.7%

row,Structure (SMILES),"viability at 28.5 h, 10 µM"
1,CC(CCCC(C)(C)O)NCCO (stereo not drawn) [CBK262340],96.3%
2,CN1CCC(=NNC(=O)C(=O)NCc2ccco2)CC1 [CBK262341],84.6%
3,O=C(Cn1c[n+]([N-][N+](=O)[O-])cn1)Nc1ncc(Br)cc1Br [CBK262342],90.9%
4,Cc1ccc(NC(=O)CN(c2ccccc2)S(=O)(=O)c2ccccc2[N+](=O)[O-])cc1C [CBK262345],57.7%
5,CC(C)N/C(=N/S(=O)(=O)c1ccccc1)c1ccccc1 [CBK262346],98.2%
6,O=C1c2ccccc2S(=O)(=O)N1CC(O)Cn1c2ccc(Br)cc2c2cc(Br)ccc21 (stereo not drawn) [CBK262347],112%
7,O=C(CCn1c(-c2ccccc2)c(-c2ccccc2)c2ccccc21)N/N=C/c1cccc(O)c1 [CBK262348],52.1%
8,COc1ccc(-c2nc3c(n2O)CCc2c-3no[n+]2[O-])cc1OC [CBK262350],80.3%
9,CN1C(=O)CC(NCc2ccc(S(N)(=O)=O)cc2)C1=O (stereo not drawn) [CBK262352],87.4%
10,O=C(CCn1c(-c2ccccc2)c(-c2ccccc2)c2ccccc21)N/N=C/c1ccccc1O [CBK262353],66.9%
11,COc1ccc(CCN2C(=O)CC(N3CCN(c4ccccc4)CC3)C2=O)cc1OC (stereo not drawn) [CBK262354],106%
12,CCOC(=O)c1ccc(N/C=C(\C#N)c2nc(-c3cc4ccccc4oc3=O)cs2)cc1 [CBK262356],83.1%
13,O=C(O)c1ccc(S(=O)(=O)NCc2ccc3c(c2)OCO3)cc1 [CBK262360],97%
14,O=C(O)COc1ccc(Br)cc1/C=N/Nc1cccc2cccnc12 [CBK262362],112%
15,Cc1ccc2[nH]c3nc(N/N=C/c4ccc(-c5cccc([N+](=O)[O-])c5)o4)nnc3c2c1 [CBK262365],106%
16,N#C/C(=C\Nc1ccc(S(N)(=O)=O)cc1)c1nc(-c2cccc([N+](=O)[O-])c2)cs1 [CBK262366],115%
17,O=C(O)COc1ccc(Br)cc1/C=N/Nc1ccccn1 [CBK262369],102%
18,O=C(O)c1cc(S(=O)(=O)Nc2ccccc2C(=O)O)ccc1Br [CBK262371],98.8%
19,COc1cc(/C=N\Nc2nnc3c(n2)[nH]c2c(C)cccc23)cc(Br)c1O [CBK262375],106%
20,N#C/C(=C\Nc1ccc(S(N)(=O)=O)cc1)c1nc(-c2cc3c(ccc4ccccc43)oc2=O)cs1 [CBK262376],105%
21,COc1cc(/C=N/NC(=O)c2nonc2N)ccc1OC(=O)c1cc(F)c(F)cc1Cl [CBK262380],90.1%
22,Cc1cccc(C2(c3cccc(C)c3)CC2C(=O)NCc2cccnc2)c1 (stereo not drawn) [CBK262382],106%

row,Structure (SMILES),"viability at 28.5 h, 10 µM"
1,O=C(O)CCn1c(SCCc2ccccc2)nc2ccccc21 [CBK262384],107%
2,NC(C(=O)O)C(O)c1ccccc1[N+](=O)[O-] (stereo not drawn) [CBK262389],92.7%
3,COc1cc(C(C)=O)ccc1OC(=O)CN1C(=O)c2ccccc2C1=O [CBK262392],112%
4,COc1cccc(C(C(F)(F)F)P(C)(=O)O)c1 (stereo not drawn) [CBK262393],96.8%
5,O=C(CC1CS(=O)(=O)CC1CC(=O)Nc1cccc(Cl)c1Cl)Nc1cccc(Cl)c1Cl (stereo not drawn) [CBK262404],95.3%
6,CC1=NN(c2ccc(Cl)cc2)C(=O)/C1=C\Nc1nnn[nH]1 [CBK262407],91%
7,COc1ccc(N(C(C)C(=O)N/N=C2\C(=O)Nc3ccccc32)S(C)(=O)=O)cc1 (stereo not drawn) [CBK262408],98.5%
8,Cc1ccc(N(CC(=O)O)S(=O)(=O)c2ccc(C)cc2)cc1 [CBK262409],106%
9,COc1cccc(NC(=O)C2CCCCC2C(=O)O)c1 (stereo not drawn) [CBK262410],93.1%
10,O=C(O)CSc1nc2ccccc2n1Cc1ccccc1 [CBK262411],94.2%
11,Brc1ccc2nc3c(nc2c1)Nc1nonc1N3 [CBK262414],78.5%
12,COC(=O)c1ccc(C)c(N(CCO)CCO)c1 [CBK262418],102%
13,O=C(O)c1cccc(N(CCO)CCO)c1 [CBK262419],93.6%
14,O=CNC(Cc1ccc(O)c([N+](=O)[O-])c1)C(=O)O (stereo not drawn) [CBK262421],101%
15,O=C(O)c1cc(-c2ccc3c(c2)OCCO3)nc2ccccc12 [CBK262422],92.5%
16,Cc1ccc(S(=O)(=O)N(CC(=O)O)c2ccccc2C)cc1 [CBK262423],101%
17,O=C1C2C(c3ccccc3Cl)OC3(C(=O)c4ccccc4C3=O)C2C(=O)N1c1ccc([N+](=O)[O-])cc1 (stereo not drawn) [CBK262425],101%
18,O=c1cccc2n1CC1CC2CN(Cc2cccc(OCc3ccccc3)c2)C1 (stereo not drawn) [CBK262426],102%
19,CC1=NN(c2nc(-c3cccc([N+](=O)[O-])c3)cs2)C(=O)C1/N=N/c1ccc(C)c(Br)c1 (stereo not drawn) [CBK262430],104%
20,C=CCN1C(=O)/C(=C2/Sc3ccc(OC)cc3N2C)S/C1=N\c1cc(C#N)ccc1NCC [CBK262431],108%

# Same assay, conditions: human, hela cells, % viability, bulk resorufin, single well
row,Structure (SMILES),"viability at 28.5 h, 10 µM"
1,CCN(CC)CCCNC=C1C(=O)NC(=O)NC1=O [CBK262403],94%

# — PMC12040169 (PLOS Biology, 2025)
